Test results taken from patent US6835735B2, “4-(phenylamino)-[1,4]dioxano[2,3-g]quinazoline derivatives and process for preparing the same” (Korea Institute of Science and Technology, priority 2001, dated 2004).
In brackets after ≈: the same amount, converted by molar mass.

Experiments:
[1] = Measurement of the solubility of compounds in water (HPLC calibration curve); format: physicochemical; settings: supersaturated in 1 ml of water, centrifuged, supernatant by HPLC; read-out: Solubility (mg/10 ml of water)
Procedure: That is, 1 mg of each of the above compounds was completely dissolved in 1 ml of DMSO, which was then subjected to HPLC employing C18 resin, and the peak area of chromatogram was calculated. And then, 1 mg of each of the same compound was dissolved in 10 ml of DMSO, which was then subjected to the same HPLC as the above to obtain a chromatogram, and the peak area was calculated therefrom. A solubility calibration curve was prepared by employing the above two data, and a linear function was deduced from that to complete a calibration curve (X axis: area, Y axis: logarithm value of concentration).
Each of the same compounds was supersaturated in 1 ml of water, which was then centrifuged at 14,000 rpm for 1 min. The precipitate was separated from the supernatant which was then subjected to the same HPLC as the above to obtain a chromatogram, and the peak area was calculated therefrom. The obtained value was substituted to the above calibration curve to measure the solubility by mg/10 ml of water (see: Table 1).

[2] = tested on: A431 cancer cell; assay: Inhibition of cancer cell growth (sulforhodamine B); format: cell-based; settings: Homo sapiens, A-431, 48 h, A431 cells, grown 2 days with compound, SRB staining
Procedure: A431 cancer cell was cultivated at 37° C. under an environment of 5% (v/v) CO2 employing RPMI 1640 medium containing 10% (v/v) fetal calf serum. […] The above cells was grown again for 2 days, and then, fixed with formalin solution (Sigma Chem. Co., U.S.A.) and washed with water. After that, the cells was dried in the atmosphere, stained with 0.1% (v/v) sulforhodamine B solution (Sigma Chem. Co., U.S.A.) for 30 min and wash with 1% (v/v) acetic acid aqueous solution. Then, dye attached to cells was extracted with 0.1M Tris-HCl (pH 8.0) and the absorbances of the remaining culture were measured at 520 nm by the aid of microplate reader. And then, the concentration of the compound by which cell growth is 50% inhibited was represented as GI50(s: Table 3).

[3] = target: T1, purified human EGFR kinase (Homo sapiens, UniProt P00533); assay: Inhibition of EGFR tyrosine kinase (P32-ATP, biotin-conjugated substrate); format: biochemical; settings: for IC50: purified human EGFR kinase, 50 μM ATP, 30° C., 10 min
T1 construct: purchased Promega
T1 sequence (P00533 25-1210): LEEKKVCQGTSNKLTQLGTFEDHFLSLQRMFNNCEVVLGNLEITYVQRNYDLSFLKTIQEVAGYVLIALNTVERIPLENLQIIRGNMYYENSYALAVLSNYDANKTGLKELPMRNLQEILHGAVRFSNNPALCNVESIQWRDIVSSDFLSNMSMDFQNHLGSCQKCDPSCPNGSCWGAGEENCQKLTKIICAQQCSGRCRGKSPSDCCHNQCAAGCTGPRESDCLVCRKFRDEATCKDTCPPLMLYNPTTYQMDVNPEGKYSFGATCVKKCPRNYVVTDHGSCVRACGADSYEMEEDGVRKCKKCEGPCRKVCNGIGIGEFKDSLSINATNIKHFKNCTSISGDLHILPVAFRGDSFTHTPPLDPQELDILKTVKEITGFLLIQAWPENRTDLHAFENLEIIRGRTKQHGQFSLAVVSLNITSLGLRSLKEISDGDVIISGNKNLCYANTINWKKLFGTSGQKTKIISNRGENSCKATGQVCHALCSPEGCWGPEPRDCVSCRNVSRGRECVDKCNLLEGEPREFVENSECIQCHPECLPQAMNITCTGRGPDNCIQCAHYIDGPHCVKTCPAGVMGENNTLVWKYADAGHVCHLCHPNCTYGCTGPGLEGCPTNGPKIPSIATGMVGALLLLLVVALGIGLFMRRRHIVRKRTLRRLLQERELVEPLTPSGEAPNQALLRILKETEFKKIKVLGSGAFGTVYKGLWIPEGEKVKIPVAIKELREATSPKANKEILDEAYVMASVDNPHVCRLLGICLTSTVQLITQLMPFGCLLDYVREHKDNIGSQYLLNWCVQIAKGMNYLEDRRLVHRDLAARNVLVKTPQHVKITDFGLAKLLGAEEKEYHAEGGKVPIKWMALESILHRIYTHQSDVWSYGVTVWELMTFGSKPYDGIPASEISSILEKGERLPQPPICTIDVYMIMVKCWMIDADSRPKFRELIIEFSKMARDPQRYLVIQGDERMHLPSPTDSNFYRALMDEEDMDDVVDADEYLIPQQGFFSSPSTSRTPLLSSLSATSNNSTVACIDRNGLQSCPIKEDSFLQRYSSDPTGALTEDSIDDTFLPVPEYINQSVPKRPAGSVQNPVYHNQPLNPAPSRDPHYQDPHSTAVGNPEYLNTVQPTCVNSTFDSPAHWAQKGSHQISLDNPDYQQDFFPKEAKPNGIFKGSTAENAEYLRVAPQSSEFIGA
Procedure: The test was accomplished in a 20 μl reaction volume using 0.1 unit per reaction of purified human EGFR kinase (Promega, U.S.A.) and 50 μM biotin-conjugated substrate for tyrosine kinase (Promega, U.S.A.) and, 50 μM P^32-γ-ATP (0.2 μCi) and 20 mM Tris-HCl (pH 7.5) were employed as an ATP and a reaction solution, respectively. The test was carried out at 30° C. for 10 min, and terminated by the addition of 10 μl of 30% phosphate solution. The half of the reaction product was spotted onto avidin-layered PVDF membrane, which was then washed with 20 mM Tris-HCl (pH 8.0) and 0.2N NaCl aqueous solution for more than 2 hours.

[4] = background statement; cited from earlier work

`COCC1COc2cc3ncnc(Nc4cccc(F)c4)c3cc2O1` (stereo not drawn) [Example 8, (3-fluorophenyl)-(7-methoxymethyl-[1,4]-dioxano[2,3-g]quinazolin-4-yl)-amine] showed a solubility thermodynamic [1] of 1040 µg/mL (≈ 3050 µM), a GI50 [2] of 1.16 µg/mL (≈ 3.4 µM) and a melting point of 257 to 260 °C. For the same compound, the IC50 [3] was over 293 nM.
For `COc1cc2ncnc(Nc3cccc(Br)c3)c2cc1OC` [DP153035, reference compound], the solubility thermodynamic [1] is given as 20 µg/mL (≈ 55.5 µM), the GI50 [2] is given as 0.99 µg/mL (≈ 2.75 µM) and the “solubility in water (in words)” value [4] is given as “insolubility in water”.
For `COc1cc2ncnc(Nc3ccc(F)c(Cl)c3)c2cc1OCCCN1CCOCC1` [ZD 1839], the “solubility in water (in words)” value [4] is listed as “does not have a high solubility”.
With `COCC1COc2cc3ncnc(Nc4cc(F)c(F)c(F)c4)c3cc2O1` (stereo not drawn) [Example 18, (3,4,5-trifluorophenyl)-(7-methoxymethyl-[1,4]-ioxano[2,3-g]quinazolin-4-yl)-amine] the solubility thermodynamic [1] was 45 µg/mL (≈ 119 µM), the GI50 [2] was 1.98 µg/mL (≈ 5.25 µM) and the “inhibitory effect on EGFR tyrosine kinase compared with standard material DP153035” value ([3]; comparison drawn from Table 2) was “higher inhibitory effect than the standard material”. It also gave an IC50 [3] of 4.19 nM.
